≈ marks a conversion by molar mass, not a printed value.
Tests used:
Escherichia coli [1] = experiment: In vivo antibacterial activity, protection of mice against systemic infection (lethal intraperitoneal inoculum); settings: infected mice, multiple dosing
Staphylococcus aureus [2] = experiment: In vitro antibacterial activity (MIC), two-fold serial dilution in Brain-Heart Infusion broth; type: cell-based; settings: S. aureus, overnight
Description: (§1) The broth is inoculated with the bacterial culture, and with the test compound, and then it is incubated overnight. On the next day, the test is read visually. The minimum inhibitory concentration (MIC) is the lowest concentration of compound which prevents turbidity, i.e., which prevents growth of the microorganism. In vitro activities against certain pathogenic bacteria area shown in Table I. This in vitro activity makes the compound of value for topical applications, for example, in the form of creams and ointments, and for the sterilization of sickroom and hospital surfaces, equipment and the like. […] This in vivo activity makes this compound suitable for the control of bacterial infections caused by susceptible organisms, in mammals, including man, by both the oral and parenteral mode of administration.

Streptococcus pyogenes = experiment: as above; type: cell-based; settings: S. pyogenes, overnight
Description: as §1

Escherichia coli [3] = experiment: as above; type: cell-based; settings: E. coli, overnight
Description: as §1

[4] = test system: Staphylococcus aureus or Escherichia coli; experiment: In vivo antibacterial activity in infected mice (statement in words); settings: SC and PO
Description: as §1

[5] = test system: gram-positive and gram-negative bacteria; experiment: In vitro activity against gram-positive and gram-negative bacteria; type: cell-based
Description: as §1

Staphylococcus aureus [6] = experiment: In vivo antibacterial activity, protection of mice against systemic infection (lethal intraperitoneal inoculum); settings: infected mice, multiple dosing
Isoelectric point = type: physicochemical; settings: in water

Structure (SMILES)	Percentage protection E. coli (Escherichia coli [1]; 25 mg./kg. SC) [%]	Percentage protection E. coli (Escherichia coli [1]; 50 mg./kg. SC) [%]	Percentage protection E. coli (Escherichia coli [1]; 200 mg./kg. PO) [%]	MIC (Staphylococcus aureus [2]) [ng/mL]	MIC (Streptococcus pyogenes) [ng/mL]	MIC (Escherichia coli [3]) [ng/mL]	antibacterial activity in vivo [4]	activity against a wide variety of gram-positive and gram-negative bacteria [5]	Percentage protection S. Aureus (Staphylococcus aureus [6]; 6 mg./kg. SC) [%]	Percentage protection S. Aureus (Staphylococcus aureus [6]; 12 mg./kg. SC) [%]	Percentage protection S. Aureus (Staphylococcus aureus [6]; 25 mg./kg. SC) [%]	Percentage protection S. Aureus (Staphylococcus aureus [6]; 50 mg./kg. SC) [%]	isoelectric point (Isoelectric point) [pH]
CC1(C)S[C@@H]2[C@H](NC(=O)[C@H](N)c3ccc(O)cc3)C(=O)N2[C@H]1c1nn[nH]n1 [6-(D-2-Amino-2-[4-hydroxyphenyl]acetamido)-2,2-dimethyl-3-(5-tetrazolyl)penam]	80	100	100	6 (≈ 0.0154 µM)	1 (≈ 0.00257 µM)	780 (≈ 2 µM)	active as an antibacterial agent in vivo	shows activity against a wide variety of gram-positive and gram-negative bacteria	50	50	70	80	
CC1(C)S[C@@H]2[C@H](N)C(=O)N2[C@H]1c1nn[nH]n1 [6-amino-2,2-dimethyl-3-(5-tetrazolyl)penam]													~4.1
